# According to PubChem BioAssay AID1845212 (Molecular Pharmacology Branch, DTP, NCI, 2023):
# pIC50: −log10 of the molar value.
# Test system: NCI-H719 tumor spheroids, viability
# Experiment: Anticancer human tumor NCI-H719 cell line growth inhibition;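 note: spheroids exposed to compounds for seven days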;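 for viability, T/C: percent viability relative to DMSO vehicle control as 100%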
# Conditions: spheroids with HUVEC and MSC; for pIC50: curve of first compound; for viability, T/C: stronger effect = lower value
# Summary of the method: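 Complex tumor spheroids combined malignant cells with endothelial cells and mesenchymal stem cells. DNA-damaging drugs and DNA repair inhibitors were tested alone and in combination, at half-log dilutions down from clinical Cmax (top 10 microM if Cmax unknown), 0.25% DMSO final.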
# [1] = second compound 0.003 µM, first compound 0.0949 µM
# [2] = second compound 0.003 µM, first compound 0.3 µM
# [3] = second compound 0.003 µM, first compound 0.949 µM
# [4] = second compound 0.003 µM, first compound 3 µM
# [5] = second compound 0.00949 µM, first compound 0.0949 µM
# [6] = second compound 0.00949 µM, first compound 0.3 µM
# [7] = second compound 0.00949 µM, first compound 0.949 µM
# [8] = second compound 0.00949 µM, first compound 3 µM
# [9] = second compound 0.03 µM, first compound 0.0949 µM
# [10] = second compound 0.03 µM, first compound 0.3 µM
# [11] = second compound 0.03 µM, first compound 0.949 µM
# [12] = second compound 0.03 µM, first compound 3 µM
# [13] = second compound 0.0949 µM, first compound 0.0949 µM
# [14] = second compound 0.0949 µM, first compound 0.3 µM
# [15] = second compound 0.0949 µM, first compound 0.949 µM
# [16] = second compound 0.0949 µM, first compound 3 µM
# [17] = second compound 0.3 µM, first compound 0.0949 µM
# [18] = second compound 0.3 µM, first compound 0.3 µM
# [19] = second compound 0.3 µM, first compound 0.949 µM
# [20] = second compound 0.3 µM, first compound 3 µM
smiles,measurement,setting,value
Cn1ncnc1[C@H]1c2n[nH]c(=O)c3cc(F)cc(c23)N[C@@H]1c1ccc(F)cc1 + CC[C@@]1(O)C(=O)OCc2c1cc1n(c2=O)Cc2cc3c(CN(C)C)c(O)ccc3nc2-1,pIC50,second compound 0.003 µM,> 8.02
same,pIC50,second compound 0.00949 µM,> 8.02
same,pIC50,second compound 0.03 µM,> 8.02
same,pIC50,second compound 0.0949 µM,> 8.02
same,pIC50,second compound 0.3 µM,> 8.02
same,"viability, T/C","second compound 0.003 µM, first compound 0.00949 µM",5.32%
same,"viability, T/C","second compound 0.003 µM, first compound 0.03 µM",5.79%
same,"viability, T/C",[1],5.99%
same,"viability, T/C",[2],5.19%
same,"viability, T/C",[3],4.99%
same,"viability, T/C",[4],5.85%
same,"viability, T/C","second compound 0.00949 µM, first compound 0.00949 µM",5.81%
same,"viability, T/C","second compound 0.00949 µM, first compound 0.03 µM",5.54%
same,"viability, T/C",[5],5.47%
same,"viability, T/C",[6],5.57%
same,"viability, T/C",[7],5.5%
same,"viability, T/C",[8],6.37%
same,"viability, T/C","second compound 0.03 µM, first compound 0.00949 µM",5.15%
same,"viability, T/C","second compound 0.03 µM, first compound 0.03 µM",5.23%
same,"viability, T/C",[9],4.9%
same,"viability, T/C",[10],5.13%
same,"viability, T/C",[11],5.61%
same,"viability, T/C",[12],6.6%
same,"viability, T/C","second compound 0.0949 µM, first compound 0.00949 µM",5.2%
same,"viability, T/C","second compound 0.0949 µM, first compound 0.03 µM",5.29%
same,"viability, T/C",[13],6.09%
same,"viability, T/C",[14],5.95%
same,"viability, T/C",[15],5.66%
same,"viability, T/C",[16],7.03%
same,"viability, T/C","second compound 0.3 µM, first compound 0.00949 µM",5.56%
same,"viability, T/C","second compound 0.3 µM, first compound 0.03 µM",5.67%
same,"viability, T/C",[17],5.84%
same,"viability, T/C",[18],5.89%
same,"viability, T/C",[19],6.04%
same,"viability, T/C",[20],5.47%
COc1cc(C)[nH]c(=O)c1CN1CCc2c(Cl)cc(C(OC)C3COC3)c(Cl)c2C1=O (stereo not given) + COc1cc2c(cc1O)CCNC21CSC2c3c(OC(C)=O)c(C)c4c(c3C(COC1=O)N1C(O)C3Cc5cc(C)c(OC)c(O)c5C(C21)N3C)OCO4,pIC50,second compound 30 pM,< 5.00
same,pIC50,second compound 94.9 pM,> 7.50
same,pIC50,second compound 0.0003 µM,> 7.50
same,pIC50,second compound 0.000949 µM,> 7.50
same,pIC50,second compound 0.003 µM,> 7.50
same,"viability, T/C","second compound 30 pM, first compound 0.0316 µM",91.6%
same,"viability, T/C","second compound 30 pM, first compound 0.1 µM",85%
same,"viability, T/C","second compound 30 pM, first compound 0.316 µM",88.3%
same,"viability, T/C","second compound 30 pM, first compound 1 µM",95.7%
same,"viability, T/C","second compound 30 pM, first compound 3.16 µM",90.9%
same,"viability, T/C","second compound 30 pM, first compound 10 µM",82.9%
same,"viability, T/C","second compound 94.9 pM, first compound 0.0316 µM",39.9%
same,"viability, T/C","second compound 94.9 pM, first compound 0.1 µM",42.6%
same,"viability, T/C","second compound 94.9 pM, first compound 0.316 µM",43.9%
same,"viability, T/C","second compound 94.9 pM, first compound 1 µM",31.1%
same,"viability, T/C","second compound 94.9 pM, first compound 3.16 µM",32.4%
same,"viability, T/C","second compound 94.9 pM, first compound 10 µM",50.6%
same,"viability, T/C","second compound 0.0003 µM, first compound 0.0316 µM",13.2%
same,"viability, T/C","second compound 0.0003 µM, first compound 0.1 µM",6.14%
same,"viability, T/C","second compound 0.0003 µM, first compound 0.316 µM",8.15%
same,"viability, T/C","second compound 0.0003 µM, first compound 1 µM",5.96%
same,"viability, T/C","second compound 0.0003 µM, first compound 3.16 µM",6.6%
same,"viability, T/C","second compound 0.0003 µM, first compound 10 µM",7.13%
same,"viability, T/C","second compound 0.000949 µM, first compound 0.0316 µM",6.97%
same,"viability, T/C","second compound 0.000949 µM, first compound 0.1 µM",6.88%
same,"viability, T/C","second compound 0.000949 µM, first compound 0.316 µM",8.11%
same,"viability, T/C","second compound 0.000949 µM, first compound 1 µM",6.65%
same,"viability, T/C","second compound 0.000949 µM, first compound 3.16 µM",6.56%
same,"viability, T/C","second compound 0.000949 µM, first compound 10 µM",6.23%
same,"viability, T/C","second compound 0.003 µM, first compound 0.0316 µM",0.23%
same,"viability, T/C","second compound 0.003 µM, first compound 0.1 µM",0.35%
same,"viability, T/C","second compound 0.003 µM, first compound 0.316 µM",0.34%
same,"viability, T/C","second compound 0.003 µM, first compound 1 µM",0.86%
same,"viability, T/C","second compound 0.003 µM, first compound 3.16 µM",0.34%
same,"viability, T/C","second compound 0.003 µM, first compound 10 µM",0.93%
COc1cc2c(cc1O)CCNC21CSC2c3c(OC(C)=O)c(C)c4c(c3C(COC1=O)N1C(O)C3Cc5cc(C)c(OC)c(O)c5C(C21)N3C)OCO4 (stereo not given),"viability, T/C",compound 94.9 pM,36.8% [middle of 10 runs]
same,"viability, T/C",compound 0.0003 µM,8.36% [middle of 10 runs]
same,"viability, T/C",compound 0.000949 µM,7.96% [middle of 10 runs]
same,"viability, T/C",compound 0.003 µM,0.83% [middle of 9 runs]
same,IC50,"compound alone, run of 12/16/2019",0.0663 nM [middle of 10 runs]
O=C(c1cc(Cc2n[nH]c(=O)c3ccccc23)ccc1F)N1CCN(C(=O)C2CC2)CC1 + CC[C@@]1(O)C(=O)OCc2c1cc1n(c2=O)Cc2cc3c(CN(C)C)c(O)ccc3nc2-1,pIC50,second compound 0.003 µM,> 7.02
same,pIC50,second compound 0.00949 µM,> 7.02
same,pIC50,second compound 0.03 µM,> 7.02
same,pIC50,second compound 0.0949 µM,> 7.02
same,pIC50,second compound 0.3 µM,> 7.02
same,"viability, T/C",[1],8.96%
same,"viability, T/C",[2],7.42%
same,"viability, T/C",[3],6.71%
same,"viability, T/C",[4],6.81%
same,"viability, T/C","second compound 0.003 µM, first compound 9.49 µM",5.81%
same,"viability, T/C","second compound 0.003 µM, first compound 30 µM",4.97%
same,"viability, T/C",[5],6.26%
same,"viability, T/C",[6],5.9%
same,"viability, T/C",[7],6.11%
same,"viability, T/C",[8],5.87%
same,"viability, T/C","second compound 0.00949 µM, first compound 9.49 µM",5.83%
same,"viability, T/C","second compound 0.00949 µM, first compound 30 µM",5.35%
same,"viability, T/C",[9],5.59%
same,"viability, T/C",[10],5.66%
same,"viability, T/C",[11],6.11%
same,"viability, T/C",[12],5.5%
same,"viability, T/C","second compound 0.03 µM, first compound 9.49 µM",5.9%
same,"viability, T/C","second compound 0.03 µM, first compound 30 µM",5.66%
same,"viability, T/C",[13],5.78%
same,"viability, T/C",[14],5.76%
same,"viability, T/C",[15],5.69%
same,"viability, T/C",[16],5.69%
same,"viability, T/C","second compound 0.0949 µM, first compound 9.49 µM",5.97%
same,"viability, T/C","second compound 0.0949 µM, first compound 30 µM",5.61%
same,"viability, T/C",[17],5.43%
same,"viability, T/C",[18],5.79%
same,"viability, T/C",[19],6.36%
same,"viability, T/C",[20],5.43%
same,"viability, T/C","second compound 0.3 µM, first compound 9.49 µM",5.25%
same,"viability, T/C","second compound 0.3 µM, first compound 30 µM",4.62%
